Data from patent US10590086B2, “Pharmaceutical compound” (IOmet Pharma Ltd., priority 2014, dated 2020).

Key:
TDO [1] = target: T1, TDO (Homo sapiens, UniProt P48775); assay: hTDO biochemical coupled assay; conditions: 330 μM L-tryptophan, read-out: hTDO biochemical assay pIC50 (converted)
IDO [2] = target: T2, IDO (Homo sapiens, UniProt P14902); assay: hIDO biochemical coupled assay; conditions: 45 μM L-tryptophan, read-out: hIDO biochemical assay pIC50 (converted)
Source text: Two different assays were employed: 1. a cell-based assay for detecting the effect of test compounds on kynurenine production in two different cancer cell types. This assay utilised cancer cells which expressed either TDO or IDO and as such was used as a means of testing compound activity at these two enzymes in a cell-based context. 2. a TDO and IDO biochemical coupled assay which utilised recombinantly produced and purified TDO and IDO enzymes in combination with the enzyme formamidase. This coupled enzyme system allowed conversion of N-formylkynurenine produced by TDO or IDO activity to kynurenine which was then quantified by fluorescence following addition of Erhlich's Reagent The protocols for these are set out below.

TDO [3] = target: T1, TDO; assay: A172 kynurenine cell-based assay; parameters: This assay utilised cancer cells which expressed either TDO or IDO; endogenous in cells; host or cells: A172 (human glioblastoma); conditions: A172 human glioblastoma cells, 48 hours, read-out: A172 Kynurenine cell based assay pIC50 (converted)
Procedure, shortened: (§1)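 Cellular kynurenine production, TDO via A172 glioblastoma and IDO via IFN-γ-stimulated SKOV3 ovarian adenocarcinoma cells, was quantified after 48 hours' compound treatment in 500 μM L-tryptophan medium, using Erhlich's reagent and absorbance at 490 nm.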

IDO [4] = target: T2, IDO; assay: SKOV3 kynurenine cell-based assay (IDO induced by IFN-γ); parameters: IDO expression was induced in the SKOV3 cells by the addition of 500 ng/ml IFN-γ; endogenous in cells; host or cells: SKOV3 (human ovarian adenocarcinoma), induced with IFN-γ; conditions: 48 hours, read-out: SKOV3 Kynurenine cell based assay pIC50 (converted)
Procedure, shortened: as §1

[5] = SKOV3 human ovarian adenocarcinoma cells, 500 ng/ml IFN-γ, 500 μM L-tryptophan

T2 sequence (P14902 whole entry): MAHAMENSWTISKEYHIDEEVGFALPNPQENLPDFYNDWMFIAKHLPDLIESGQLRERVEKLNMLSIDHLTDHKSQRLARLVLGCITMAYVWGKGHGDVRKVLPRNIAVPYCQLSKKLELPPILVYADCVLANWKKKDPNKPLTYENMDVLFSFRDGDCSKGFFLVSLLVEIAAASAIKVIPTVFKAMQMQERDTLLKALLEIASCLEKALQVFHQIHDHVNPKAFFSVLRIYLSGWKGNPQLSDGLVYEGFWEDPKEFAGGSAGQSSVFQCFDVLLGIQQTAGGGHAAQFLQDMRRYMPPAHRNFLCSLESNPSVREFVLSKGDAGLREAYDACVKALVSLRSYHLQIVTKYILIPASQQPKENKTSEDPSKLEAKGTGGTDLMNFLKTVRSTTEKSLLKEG
T1 sequence (P48775 whole entry): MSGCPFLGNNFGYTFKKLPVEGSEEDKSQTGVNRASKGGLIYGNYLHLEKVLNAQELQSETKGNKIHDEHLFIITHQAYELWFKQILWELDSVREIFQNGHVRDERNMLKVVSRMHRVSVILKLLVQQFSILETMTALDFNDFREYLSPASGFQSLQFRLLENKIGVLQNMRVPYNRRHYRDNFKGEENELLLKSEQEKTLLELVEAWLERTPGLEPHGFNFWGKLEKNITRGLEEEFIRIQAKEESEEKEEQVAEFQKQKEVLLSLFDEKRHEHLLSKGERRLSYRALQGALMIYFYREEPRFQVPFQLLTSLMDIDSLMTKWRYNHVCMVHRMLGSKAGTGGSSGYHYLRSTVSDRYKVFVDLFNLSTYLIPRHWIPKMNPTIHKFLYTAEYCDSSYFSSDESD

Row | SMILES | IC50 (TDO [1]; 17 minutes, room temperature) [µM] | IC50 (IDO [2]; 17 minutes, room temperature) [µM] | IC50 (TDO [3]; 500 μM L-tryptophan) [µM] | IC50 (IDO [4]; [5]) [µM] | IC50 (TDO [1]) [µM] | IC50 (IDO [2]) [µM] | IC50 (TDO [3]) [µM] | IC50 (IDO [4]; SKOV3 cells, IDO induced by 500 ng/ml IFN-γ) [µM]
1 | CC(C)(O)c1cc(Cl)cc2[nH]ncc12 [Compound 259] | < 3.16 | > 100 | < 3.16 | 32.4 to 100 | – | – | – | –
2 | CC(C)C(O)c1cc(Cl)cc2[nH]ncc12 (stereo not drawn) [Compound 260] | < 3.16 | 3.24 to 31.6 | < 3.16 | 3.24 to 31.6 | – | – | – | –
3 | CS(=O)(=O)c1ccc(-c2cc(Cl)cc3[nH]ncc23)cc1Cl [Compound 264] | < 3.16 | 3.24 to 31.6 | < 3.16 | < 3.16 | – | – | – | –
4 | CS(=O)(=O)c1ccc(-c2cc(Cl)cc3[nH]ncc23)cc1F [Compound 265] | < 3.16 | 3.24 to 31.6 | < 3.16 | 3.24 to 31.6 | – | – | – | –
5 | COc1cc(S(C)(=O)=O)ccc1-c1cc(Cl)cc2[nH]ncc12 [Compound 266] | < 3.16 | > 100 | < 3.16 | 3.24 to 31.6 | – | – | – | –
6 | O=C1NCC2(CCN(c3cc(Cl)cc4[nH]ncc34)CC2)N1 [Compound 267] | < 3.16 | 3.24 to 31.6 | < 3.16 | 3.24 to 31.6 | – | – | – | –
7 | Cc1cc(S(C)(=O)=O)ccc1-c1cc(Cl)cc2[nH]ncc12 [Compound 268] | < 3.16 | 32.4 to 100 | < 3.16 | 3.24 to 31.6 | – | – | – | –
8 | NS(=O)(=O)c1ccc(-c2cc(Cl)cc3[nH]ncc23)cc1 [Compound 269] | < 3.16 | > 100 | < 3.16 | 3.24 to 31.6 | – | – | – | –
9 | OC(c1ccccc1)c1cc(Cl)cc2[nH]ncc12 (stereo not drawn) [Compound 271] | < 3.16 | > 100 | < 3.16 | 32.4 to 100 | – | – | – | –
10 | CC(C)CC(O)c1cc(Cl)cc2[nH]ncc12 (stereo not drawn) [Compound 272] | < 3.16 | 32.4 to 100 | < 3.16 | 3.24 to 31.6 | – | – | – | –
11 | OC1(c2cc(Cl)cc3[nH]ncc23)CCCCC1 [Compound 273, 1-(6-chloro-1H-indazol-4-yl)cyclohexanol] | < 3.16 | 3.24 to 31.6 | < 3.16 | 3.24 to 31.6 | 0.0851 | 11.7 | 0.0135 | 9.55
12 | CN(C)S(=O)(=O)c1ccc(-c2cc(Cl)cc3[nH]ncc23)cc1 [Compound 277] | < 3.16 | > 100 | < 3.16 | 3.24 to 31.6 | – | – | – | –
13 | CC(=O)N(C)C1CCN(c2cc(Cl)cc3[nH]ncc23)C1 (stereo not drawn) [Compound 278] | < 3.16 | 32.4 to 100 | < 3.16 | 3.24 to 31.6 | – | – | – | –
14 | CNc1cc(-c2cc(Cl)cc3[nH]ncc23)ccn1 [Compound 279] | < 3.16 | > 100 | < 3.16 | < 3.16 | – | – | – | –
15 | O=C1CC2(CCN(c3cc(Cl)cc4[nH]ncc34)CC2)CN1 [Compound 280] | < 3.16 | 3.24 to 31.6 | < 3.16 | 3.24 to 31.6 | – | – | – | –
16 | OC(Cc1ccccc1)c1cc(Cl)cc2[nH]ncc12 (stereo not drawn) [Compound 281] | < 3.16 | 3.24 to 31.6 | < 3.16 | 3.24 to 31.6 | – | – | – | –
17 | CC(=O)N(C)CC1CCN(c2cc(Cl)cc3[nH]ncc23)CC1 [Compound 282] | < 3.16 | 32.4 to 100 | < 3.16 | 3.24 to 31.6 | – | – | – | –
18 | CC(=O)NCC1CCCN(c2cc(Cl)cc3[nH]ncc23)C1 (stereo not drawn) [Compound 283] | < 3.16 | > 100 | 3.24 to 31.6 | 3.24 to 31.6 | – | – | – | –
19 | CS(=O)(=O)NCC1CCCN(c2cc(Cl)cc3[nH]ncc23)C1 (stereo not drawn) [Compound 284] | < 3.16 | > 100 | 3.24 to 31.6 | 32.4 to 100 | – | – | – | –
20 | CN(CC1CCCN(c2cc(Cl)cc3[nH]ncc23)C1)S(C)(=O)=O (stereo not drawn) [Compound 285] | 3.24 to 31.6 | > 100 | 3.24 to 31.6 | 32.4 to 100 | – | – | – | –
21 | CC(=O)N(C)CC1CCCN(c2cc(Cl)cc3[nH]ncc23)C1 (stereo not drawn) [Compound 286] | < 3.16 | > 100 | 3.24 to 31.6 | 3.24 to 31.6 | – | – | – | –
22 | COC(C)c1cc(Cl)cc2[nH]ncc12 (stereo not drawn) [Compound 287] | 3.24 to 31.6 | > 100 | 3.24 to 31.6 | > 100 | – | – | – | –
23 | COCCc1cc(Cl)cc2[nH]ncc12 [Compound 288] | < 3.16 | > 100 | < 3.16 | > 100 | – | – | – | –
24 | OC(CC1CCOCC1)c1cc(Cl)cc2[nH]ncc12 (stereo not drawn) [Compound 289] | < 3.16 | 32.4 to 100 | < 3.16 | 32.4 to 100 | – | – | – | –

Row | SMILES | IC50 (TDO [1]; 17 minutes, room temperature) [µM] | IC50 (IDO [2]; 17 minutes, room temperature) [µM] | IC50 (TDO [3]; 500 μM L-tryptophan) [µM] | IC50 (IDO [4]; [5]) [µM] | IC50 (TDO [1]) [µM] | IC50 (IDO [2]) [µM] | IC50 (TDO [3]) [µM] | IC50 (IDO [4]; SKOV3 cells, IDO induced by 500 ng/ml IFN-γ) [µM]
25 | O=C1NC(=O)C2(CCN(c3cc(Br)cc4[nH]ncc34)CC2)N1 [Compound 290] | < 3.16 | < 3.16 | < 3.16 | < 3.16 | – | – | – | –
26 | CN1CC2(CCN(c3cc(Cl)cc4[nH]ncc34)CC2)CC1=O [Compound 291] | < 3.16 | > 100 | < 3.16 | 3.24 to 31.6 | – | – | – | –
27 | CC(=O)N1CCC(CNC(=O)c2cc(Cl)cc3[nH]ncc23)CC1 [Compound 295] | > 100 | > 100 | > 100 | 32.4 to 100 | – | – | – | –
28 | CS(=O)(=O)c1ccc(-c2cc(Cl)cc3[nH]ncc23)c(F)c1 [Compound 297] | < 3.16 | 3.24 to 31.6 | < 3.16 | < 3.16 | – | – | – | –
29 | CNC(=O)C1CCN(c2cc(Cl)cc3[nH]ncc23)C1 (stereo not drawn) [Compound 298] | < 3.16 | 3.24 to 31.6 | 3.24 to 31.6 | 3.24 to 31.6 | – | – | – | –
30 | OC(c1cc(Cl)cc2[nH]ncc12)C1CCOCC1 (stereo not drawn) [Compound 299] | < 3.16 | > 100 | < 3.16 | > 100 | – | – | – | –
31 | CNS(=O)(=O)c1ccc(-c2cc(Cl)cc3[nH]ncc23)cc1 [Compound 300] | < 3.16 | 32.4 to 100 | < 3.16 | 3.24 to 31.6 | – | – | – | –
32 | O=C(O)C1CCN(c2cc(Cl)cc3[nH]ncc23)CC1 [Compound 301] | < 3.16 | 32.4 to 100 | 3.24 to 31.6 | > 100 | – | – | – | –
33 | CS(=O)(=O)N1CCN(c2cc(Cl)cc3c(N)noc23)CC1 [Compound 302] | > 100 | > 100 | 3.24 to 31.6 | 3.24 to 31.6 | – | – | – | –
34 | CC(=O)N1CCN(c2cc(Cl)cc3c(N)noc23)CC1 [Compound 303] | > 100 | > 100 | 3.24 to 31.6 | > 100 | – | – | – | –
35 | Clc1cc(N2CCc3ccccc3C2)c2cn[nH]c2c1 [Compound 304] | < 3.16 | > 100 | < 3.16 | 32.4 to 100 | – | – | – | –
36 | CC(=O)N1CCN(c2cc(Cl)cc3c(N)noc23)CC1(C)C [Compound 305] | 32.4 to 100 | > 100 | 3.24 to 31.6 | 32.4 to 100 | – | – | – | –
37 | CS(=O)(=O)N1CCN(c2cc(Cl)cc3c(N)n[nH]c23)CC1 [Compound 306] | > 100 | > 100 | 3.24 to 31.6 | 3.24 to 31.6 | – | – | – | –
38 | CC(=O)N1CCN(c2cc(Cl)cc3c(N)n[nH]c23)CC1(C)C [Compound 307] | < 3.16 | < 3.16 | > 100 | 3.24 to 31.6 | – | – | – | –
39 | Clc1cc(N2CCCCC2)c2cn[nH]c2c1 [Compound 308] | 3.24 to 31.6 | 32.4 to 100 | < 3.16 | > 100 | – | – | – | –
40 | Clc1cc(N2CCN(c3ncccn3)CC2)c2cn[nH]c2c1 [Compound 309] | 3.24 to 31.6 | > 100 | < 3.16 | > 100 | – | – | – | –
41 | CN(c1cc(N2CCN(S(C)(=O)=O)C(C)(C)C2)c2cn[nH]c2c1)S(C)(=O)=O [Compound 310] | > 100 | > 100 | 32.4 to 100 | > 100 | – | – | – | –
42 | CC(=O)N(C)c1cc(N2CCN(S(C)(=O)=O)C(C)(C)C2)c2cn[nH]c2c1 [Compound 311] | 32.4 to 100 | > 100 | 3.24 to 31.6 | 3.24 to 31.6 | – | – | – | –
43 | CC(=O)Nc1cc(N2CCN(S(C)(=O)=O)C(C)(C)C2)c2cn[nH]c2c1 [Compound 312] | > 100 | > 100 | 3.24 to 31.6 | > 100 | – | – | – | –
44 | Clc1cc(N2CCC(c3nccs3)CC2)c2cn[nH]c2c1 [Compound 313] | < 3.16 | 3.24 to 31.6 | < 3.16 | 3.24 to 31.6 | – | – | – | –
45 | CS(=O)(=O)N1C2COCC1CN(c1cc(Cl)cc3[nH]ncc13)C2 [Compound 314] | < 3.16 | 32.4 to 100 | < 3.16 | 32.4 to 100 | – | – | – | –
46 | CCN1C(=O)NC2(CCN(c3cc(Cl)cc4[nH]ncc34)CC2)C1=O [Compound 315] | < 3.16 | < 3.16 | < 3.16 | < 3.16 | – | – | – | –
47 | CC(C)N1C(=O)NC2(CCN(c3cc(Cl)cc4[nH]ncc34)CC2)C1=O [Compound 316] | < 3.16 | 3.24 to 31.6 | < 3.16 | 3.24 to 31.6 | – | – | – | –
